Experimental data as given in patent publication US12553889B2, “Small molecules targeting the intrinsically disordered structural ensemble of α-synuclein protect against diverse α-synuclein mediated dysfunctions” (The Regents of the University of California, priority 2019, dated 2026).
Entries after “also recorded” stand apart in the source; their conditions may differ.

Key:
αSyn [1] = target: αSyn (Homo sapiens, UniProt P37840); test: Cellular oligomerization assay (split Gaussia luciferase complementation in H4 cells); format: cell-based; details: maximal concentrations not showing toxicity, 0.3% DMSO
Protocol: H4 neuroglioma cells (HTB-148; ATCC) were passaged in DME containing 10% fetal calf serum (FCS). They were plated into 10 cm dishes at 7.5×10^5 cells per dish and the following day transfected with DNA and Fugene (Promega, Madison, WI) at a ratio of 3:1 with 7 μg each of Syn-Luc1 (S1) and Syn-Luc2 (S2) plasmids, which are also referred to as syn-hGluc(1) and syn-hGLuc(2) respectively (see Outeiro, T. F. et al. Plos One 3, e1867, incorporated herein by reference in entirety) and 3 μg of red firefly expressing plasmid (pCMV-Red firefly Luc, ThermoFisher, Waltham, MA) per dish according to the manufacturer's directions. S1 and S2 plasmids express αSyn containing split Gaussia luciferase with either the N-terminal fragment (S1) or C-terminal fragment (S2) attached to the C-terminus of αSyn. After 24 hours, the DNA containing media was removed and cells were fed fresh DME media containing 10% FCS. […] Gaussia luciferase activity was measured in the dark 0.1 sec after injection of 100 μl/well of […] coelenterazine, substrate (NanoLight, Pinetop, AZ) using a 2 sec integration on a Veritas Microplate Luminometer (Promega, Madison, WI). The cells were subsequently assayed for red Firefly activity using the ONE-Glo™ Luciferase Assay System kit (Promega, Madison, WI) on a Spectramax M5 (Molecular Devices, San Jose, CA) plate reader as a normalization measure. […]

αSyn [2] = test: Western analyses of αSyn levels in H4 cells; format: cell-based, human; details: H4 cells transiently transfected with split Gaussia luciferase tagged αSyn, 150 μM
Protocol: All materials were purchased from Invitrogen (Carlsbad, CA) unless stated otherwise. Cell from a 6 well dish were washed twice with PBS and lysed with 250 μl of RIPA Lysis buffer with protease and phosphatase inhibitors (Sigma, St. Louis, MO). Lysates were incubated on a shaker for 15 minutes at 4° C. and spun down for 15 min. at 10,000 g. Total protein concentrations were determined by BCA assay (Thermo Fisher, Waltham, MA). 1 ml of media was collected and incubated with protease and phosphatase inhibitors and 50 μl of Ni-agarose beads to collect the His-tagged αSyn (Qiagen, Hilden, Germany) for 2 hrs at […]. Beads were centrifuged and washed in PBS. Cell samples and pelleted beads from the media were placed into Bolt LDS (lithium dodecyl sulfate) sample buffer with 20% β-mercaptoethanol and boiled for 15 min. 5-15 μg of sample (cells) and an equivalent fraction of media were electrophoresed on Bolt 4-12% Bis-Tris Plus gels with Bolt MES SDS running buffer and the Precision Plus Protein Dual Color Standards (Biorad, Hercules, CA) molecular weight markers. After electrophoresis, the separated proteins were transferred onto a 0.2 μm pore size PVDF membrane for 90 minutes at 400 mA and 4° C. in Bolt Transfer Buffer using BioRad midi transfer chambers. […] Membranes were scanned and quantitated using the Odyssey CLx Imaging System (LI-COR, Lincoln, NE). […]

In the case of `CNC(=O)c1cc(O)ccc1N` [Compound 576755, 2-amino-5-hydroxy-N-methylbenzamide], the “impact on cellular αSyn oligomerization” value (αSyn [1]) is reported as “reproducibly reduced cellular oligomers; also recorded: reduces αSyn oligomerization” and the “impact on cellular αSyn protein levels” value (αSyn [2]) is reported as “no impact on αSyn levels”.
